Values quoted from earlier work as cited in US4925674A (hiMedics, Inc., priority 1988, dated 1990).

Conditions: well known

CC1(C)S[C@@H]2[C@H](NC(=O)[C@H](N)c3ccc(O)cc3)C(=O)N2[C@H]1C(=O)O [Amoxicillin, amoxicillin]
dose-related gastrointestinal upsets: dose-related gastrointestinal upsets (epigastric distress, nausea, vomiting, and especially diarrhea) occur commonly
